Measurements as given in patent publication US20240139376A1, “RECONSTITUTION OF EXTRACELLULAR MATRIXES FOR MUSCULOSKELETAL JOINT TISSUE REPAIR USING BIOMIMETIC BIOLOGIC AND SYNTHETIC FACTORS” (Rhode Island Hospital, priority 2021, published 2024).

What was measured:
Human CPCs [1] = assay: RT-qPCR of chondrogenic and hypertrophy markers after KGN treatment, CPCs; type: cell-based
Method: (§1) 1 μM KGN enhances chondrogenesis of CPCs but not MSCs. The following materials and methods were used to generate the data described herein. Human CPCs and bone marrow derived mesenchymal stem cells (BM-MSCs) were cultured at 40,000 cells/well for 3 days or 22,000 cells/well for 10 days on 12-well plates. Cells were either untreated or treated with 500 nM, 1 μM, 10 μM, or 100 μM KGN (Sigma-Aldrich) at N=5 for each treatment group. At experimental endpoint following KGN treatment, RT-qPCR was used the measure expression of chondrogenic markers SRY-Box Transcription Factor 9 (SOX9), collagen 2 (COL2), collagen 1 (COL1) (FIG. 3A) as well as hypertrophy and catabolism markers, associated with development of osteoarthritis, collagen 10 (COL10), matrix metallopeptidase 13 (MMP13), Runt-related transcription factor 2 (RUNX2) (FIG. 3B).
(§2) Human CPCs and BM-MSCs were cultured at 40,000 cells/well for 3 days or 22,000 cells/well for 10 days on 12-well plates. Cells were either untreated or treated with 500 nM, 1 uM, 10 uM, or 100 uM KGN (Sigma-Aldrich) at N=5 for each treatment group. At experimental endpoint following KGN treatment, RT-qPCR was used the measure expression of chondrogenic markers SOX9, COL2, COL1 as well as hypertrophy and catabolism markers COL10, MMP13, RUNX2. CPCs and BM-MSCs were cultured again at 22,000 cell/swell for 10 days in 12-well plates and again treated with KGN. At 5 and 10 days of treatment, cell culture supernatant was collected, with cell media and KGN replenished at the 5-day timepoint (N=3). Supernatants were used to perform ELISA for measuring MMP13 protein. At day 10, cell culture plates were stained for Alcian Blue (N=4). The color was extracted and the absorbances were quantified via spectrophotometry, to assess acidic glycosaminoglycans (GAG) and hyaluronan (HA). In analysis, within and between group differences were assessed through 2-way ANOVA with Dunnett's multiple comparisons test. Significant differences are signified by p-values≤0.05.

[2] = system: bone marrow derived mesenchymal stem cells (BM-MSCs); assay: RT-qPCR of chondrogenic and hypertrophy markers after KGN treatment, BM-MSCs; type: cell-based, Human
Method: as §1, §2

Human CPCs [3] = assay: ELISA for MMP13 protein in cell culture supernatant, CPCs; type: cell-based; conditions: all treatment groups
Method: (§3) CPCs and BM-MSCs were cultured again at 22,000 cell/swell for 10 days in 12-well plates and again treated with KGN. At 5 and 10 days of treatment, cell culture supernatant was collected, with cell media and KGN replenished at the 5-day timepoint (N=3). Supernatants were used to perform ELISA for measuring MMP13 protein. At day 10, cell culture plates were stained for Alcian Blue (N=4). The color was extracted and the absorbances were quantified via spectrophotometry, to assess acidic glycosaminoglycans (GAG) and hyaluronan (HA). In analysis, within and between group differences were assessed through 2-way ANOVA with Dunnett's multiple comparisons test. Significant differences are signified by p-values ≤0.05.
(§4) Human CPCs and BM-MSCs were cultured at 40,000 cells/well for 3 days or 22,000 cells/well for 10 days on 12-well plates. Cells were either untreated or treated with 500 nM, 1 uM, 10 uM, or 100 uM KGN (Sigma-Aldrich) at N=5 for each treatment group. […] The color was extracted and the absorbances were quantified via spectrophotometry, to assess acidic glycosaminoglycans (GAG) and hyaluronan (HA). In analysis, within and between group differences were assessed through 2-way ANOVA with Dunnett's multiple comparisons test. […]

BM-MSCs [4] = assay: ELISA for MMP13 protein in cell culture supernatant, BM-MSCs; type: cell-based, Human
Method: as §3, §2

Human CPCs [5] = assay: Alcian Blue staining (GAG and HA), CPCs; type: cell-based; conditions: 1 μM KGN, 10 days, p<0.05
Method: as §3, §4

BM-MSCs [6] = assay: Alcian Blue staining (GAG and HA), BM-MSCs; type: cell-based, Human; conditions: 10 days
Method: as §3, §4

O=C(O)c1ccccc1C(=O)Nc1ccc(-c2ccccc2)cc1 [KGN, kartogenin]
expression of MMP13 (Human CPCs [1]; 1 μM KGN, 3 days): increased | expression of RUNX2 (Human CPCs [1]; 1 μM KGN, 3 days): increased | expression of RUNX2 (Human CPCs [1]; 10 μM KGN, 3 days): increased | expression of RUNX2 (Human CPCs [1]; 100 μM KGN, 3 days): increased | upregulation of COL2 mRNA (Human CPCs [1]; CPCs, 1 μM KGN, 3 days, p<0.0001): 2 fold | upregulation of SOX9 mRNA (Human CPCs [1]; CPCs, 1 μM KGN, 3 days, p<0.05): 2 fold | upregulation of COL2 mRNA (Human CPCs [1]; CPCs, 1 μM KGN, 10 days, p<0.05): maintained | expression of COL10 ([2]; 100 μM KGN, 10 days, p<0.05): significantly reduced | expression of MMP13 ([2]; 100 μM KGN, 10 days, p<0.05): significantly reduced | expression of COL1 ([2]; KGN): did not increase | expression of COL2 ([2]; KGN): did not increase | expression of SOX9 ([2]; KGN): did not increase | MMP13 protein in supernatant (Human CPCs [3]; 0-5 days KGN treatment): undetectable | MMP13 protein in supernatant (Human CPCs [3]; 6-10 days KGN treatment): undetectable | protein levels of MMP13 (BM-MSCs [4]; 10 μM KGN, 0-5 days, p<0.001): significant decrease | protein levels of MMP13 (BM-MSCs [4]; 10 μM KGN, 5-10 days, p<0.05): significant decrease | protein levels of MMP13 (BM-MSCs [4]; 100 μM KGN, 0-5 days, p<0.0001): significant decrease | protein levels of MMP13 (BM-MSCs [4]; 100 μM KGN, 5-10 days, p<0.0001): significant decrease | Alcian Blue staining intensity vs untreated (Human CPCs [5]): increased intensity | Alcian Blue staining intensity vs untreated (BM-MSCs [6]; 10 μM KGN, p<0.05): stained more intensely | Alcian Blue staining intensity vs untreated (BM-MSCs [6]; 100 μM KGN, p<0.0001): stained more intensely
